Measurements: patent US5658906A, “Cysteine protease and serine protease inhibitors” (Cephalon, Inc., priority 1996, dated 1997)

Each molecule was assayed against T1, Cathepsin B (Homo sapiens, UniProt P07858) (assay: Inhibition and rate of inactivation of cathepsin B (Cbz-Phe-Arg-AMC hydrolysis)). Details: pH 6.0, 0.1 mM substrate, read-out: k2 (second order rate constant of inactivation), C = Cathepsin B.
T1 construct: purchased Calbiochem 219364
Type: biochemical
Method: Additionally, the order of reagents added to the plate was altered because both enzymes are constitutively active. Following inhibitor addition to the plates appropriate 2× concentrated stock dilutions of the enzyme preparations were made in assay buffer and 100 ul added to each well. The assay was initiated by addition of 100 ul of 2× concentrated stock dilution of substrate in assay buffer. Substrate hydrolysis was monitored using a Fluroskan II (ex=390 nm; em=460 nm).
Inhibition of enzyme activity was calculated as the percent decrease in the rate of substrate hydrolysis in the presence of inhibitor (.upsilon.i) relative to the rate in its absence (.upsilon.o). Comparison between .upsilon.o and .upsilon.i was made within the linear range for substrate hydrolysis. For screening, compounds were tested at 10 μM. Compounds having ≥50% inhibition at 10 μM were considered active. Apparent second order rate constants were determined from analysis of reaction progress curves under pseudo-first order conditions. Each determination represents the mean of three or more independent single cuvette analyses continually monitored via a Perkin-Elmer LS50B spectrofluorimeter. The rate of inhibition of hydrolysis was obtained by fitting the curve to the exponential equation (1):
y=Ae^-k.spsb.obs·t +B (1)
where y (Pt) is the product formed at time t. A and B are constants. A, the amplitude of the reaction, is given by [Po -P.varies. ] and B (=P.varies.) is the maximal product formed when the reaction is […]. This was corrected for the presence of equation (2): […]

SMILES	kinact/KI [M⁻¹ s⁻¹]
CC(C)C[C@H](NC(=O)OCc1ccccc1)C(=O)N[C@@H](Cc1ccccc1)C(=O)COn1nnc2ccccc21 [Example 3, 1-[N-[N-Benzyloxycarbonyl-L-leucyl]-3S-4-phenyl-3-amino-2-oxobutyloxy]benzotriazole]	117000
CC[C@H](NC(=O)[C@H](CC(C)C)NC(=O)OCc1ccccc1)C(=O)COn1nnc2ccccc21 [Example 5, 1-[N-[N-Benzyloxycarbonyl-L-leucyl]-3S-3-amino-2-oxopentyloxy] benzotriazole]	443000
CC(C)C[C@H](NC(=O)OCc1ccccc1)C(=O)N[C@@H](Cc1ccccc1)C(=O)COn1nnc2cccnc21 [Example 6, 3-[N-[N-Benzyloxycarbonyl-L-leucyl]-3S-4-phenyl-3-amino-2-oxobutyloxy]-3H-triazolo[4,5-b]pyridine]	107000
CC(C)C[C@H](NC(=O)OCc1ccccc1)C(=O)N[C@@H](Cc1ccccc1)C(=O)COn1nnc2ccccc2c1=O [Example 28, 1-[N-[N-Benzyloxycarbonyl-L-leucyl]-3S-4-phenyl-3-amino-2-oxobutyloxy]-3-benzotriazin-4-one]	7000
